Laboratory results from patent publication US20240226123A9, “USE OF CANNABIDIVARIN IN THE TREATMENT OF SEIZURES ASSOCIATED WITH CANINE EPILEPSY” (GW Research Limited, priority 2021, published 2024).

Experiments:
[1] = system: spike-and-wave discharges induced by gamma-butyrolactone (GBL); assay: GBL induced absence seizure model, quantified EEG (spectral power, cortex); format: in vivo, beagle dogs
Description: The experiment was carried out on nine male non-naïve beagle dogs, weighing 9-15 kg. All animals were housed in a box or in a kennel under natural lighting with restricted access to food (approx. 300 g/animal/day) and unlimited access to water.
Dogs were implanted with an Emka Technologies telemetric device. Following an incision in the lateral neck region, the telemetric device was introduced into a pouch under the skin. The positive and negative biopotential electrodes were coiled into a loop and tunnelled subcutaneously to protrude into the opened scalp incision. The skin incisions then were closed.
Following a sagittal incision of the scalp, the top of the skull was prepared for implantation. The incision was performed between bregma and lambda sutures in order to place electrodes over the parietal cortex. Three small holes were drilled into the skull, on the right hemisphere. The tips of the electrodes were then pushed through the holes through the skull onto the dura mater. The electrodes were connected to small plugs, placed into a connector and the whole assembly was secured on skull with dental cement. The skin incisions then were closed using aseptic chirurgical thread.
Approximately 2 weeks later, the dogs were placed in a sling for the experiment.
For EEG recording, a telemetry receiver was located nearby the animal to record EEG.
All generated data was acquired and analysed using the EMKA Technologies software. The quality of the EEG signals was checked before launching EEG recording.
Before the experiment, EEG signals were recorded during a few minutes in baseline conditions to check the quality of the signals.
The baseline EEG recording was done for each dog, one day before the test session and lasted 40 minutes. Baseline and test sessions were done at the same time of the day for each dog.
EEG signals were recorded during 40 minutes to evaluate spike-and-wave discharges. The latency to observe spike-and-wave discharges was determined off-line on EEG signals.
The differential outputs between the 2 electrodes at each implantation site were digitized on-line at a sampling rate of 500 Hz/channel and the data stored in raw data files.
EEG was quantitatively analysed by spectral analysis using a Fast Fourier Transform algorithm. Spectra were calculated from epochs of 4.1-second duration. The mean total spectral power between 1.5 and 64 Hz and the power in 6 sub-frequency bands per brain structure recorded (1.5-4 (delta), 5-8 (theta), 8.5-12.5 (alpha), 13-35 (beta), 36-64 (gamma) and 3-6 Hz) was calculated on four 10-minute periods (from 0 to 10, 10 to 20, 20 to 30 and 30 to 40 minutes during baseline and test sessions).
Before being submitted to further analysis, all spectra containing recording artefacts found on visual inspection of the EEG traces were eliminated. Then the averages of 10-minute intervals of the verified individual spectra were saved into data files which then were transferred into Excel calculation sheets.

[2] = system: pilocarpine-induced seizures; conditions: rodent seizure models; cited from earlier work
[3] = system: postnatal day 10 and 20 rats; conditions: cited from earlier work
[4] = system: focal seizures in humans; conditions: Phase II, placebo group similar; cited from earlier work
[5] = Adverse effects observed in dogs of the GBL model studies
[6] = CBDV 100 mg/kg p.o. 4 hours before GBL, across all four time periods

SMILES | power of high frequency bands (beta and gamma) [1, 6] | spectral power of lower frequency bands (delta, theta and alpha) [1, 6] | spectral power on delta frequency bands ([1]; CBDV 100 mg/kg p.o. 4 hours before GBL, time-interval 30-40 minutes, vs vehicle controls, p<0.05) | spectral power on 3-6 Hz frequency band ([1]; CBDV 100 mg/kg p.o., following GBL administration, vs vehicle control) | effect in pilocarpine-induced seizures [2] | anticonvulsant action [3] | reductions in focal seizures [4] | power of high frequency bands (beta and gamma) ([1]; Diazepam 2 mg/kg p.o., across all four time periods) | adverse effects observed ([5]; diazepam 4 mg/kg, three dogs, during the test, after GBL administration) | adverse effects observed ([5]; diazepam 6 mg/kg, two dogs, GBL could not be administered)
C=C(C)[C@@H]1CCC(C)=C[C@H]1c1c(O)cc(CCC)cc1O [CBDV, cannabidivarin] | increased | decreased | significantly decreased | lowered | not found to have any effect | age and model-specific profile of anticonvulsant action | approximately 40% | – | – | –
CN1C(=O)CN=C(c2ccccc2)c2cc(Cl)ccc21 [Diazepam] | – | – | – | – | – | – | – | increased | Motor incoordination and psychotic effects (stereotypies, involuntary movements, barks) | the symptoms were stronger
